Consider 5 compounds from US9364488B2, “Myelin regeneration with androgens” (priority 2011, dated 2016).

The conditions of series [1]: mouse, in vivo, sc.
Series [2] concerns the target estrogen receptor beta (ERβ) (Homo sapiens, UniProt Q92731). Particulars: reference 16; cited from earlier work.
Series [3] can be described thus: MENT level in plasma of castrated male mice with subcutaneous silastic implants (radioimmunoassay). The format is in vivo. Particulars: mean of 8 samples, SD 0.87. The source says:
In additional experiments, the level of MENT which was induced in the plasma of castrated male mice based on subcutaneous silastic implants, as determined by radioimmunoassay, and which included a myelin response, was as follows: […]

For series [4], the system named is corpus callosum axons of cuprizone-intoxicated mice. The experiment in a line: Remyelination of corpus callosum after demyelination induced by cuprizone intoxication. As to conditions: for remyelination of corpus callosum (myelin basic protein staining, oligodendrocytes): 6 weeks of treatment with subcutaneous silastic implants after 12 weeks of cuprizone intoxication; for promyelinating effect in vivo after demyelination induced by cuprizone intoxication (summary statement): male and female animals; for remyelinating effect in testicular feminized mice: mice devoid of functional androgen receptors due to a gene mutation. The format is in vivo. From the text:
In Figures b, d and f, are shown representative images of immunostaining of mouse corpus callosum with anti-MBP antibody.

Series [5] deals with oligodendrocyte progenitors. The experiment in a line: Proliferation and maturation of oligodendrocyte progenitors.
For series [6], the system named is activated microglial cells in corpus callosum. The experiment in a line: Microglial responses and astrogliosis after cuprizone intoxication. Particulars: 9 weeks of treatment after 12 weeks of cuprizone intoxication, castrated males.
For series [7], the system named is organotypic cultures of cerebellar slices.

Each structure is given as a SMILES string. Entries after “also recorded” stand apart in the source; their conditions may differ.

Chain of estrogen receptor beta (ERβ) (Q92731 whole entry, species assumed): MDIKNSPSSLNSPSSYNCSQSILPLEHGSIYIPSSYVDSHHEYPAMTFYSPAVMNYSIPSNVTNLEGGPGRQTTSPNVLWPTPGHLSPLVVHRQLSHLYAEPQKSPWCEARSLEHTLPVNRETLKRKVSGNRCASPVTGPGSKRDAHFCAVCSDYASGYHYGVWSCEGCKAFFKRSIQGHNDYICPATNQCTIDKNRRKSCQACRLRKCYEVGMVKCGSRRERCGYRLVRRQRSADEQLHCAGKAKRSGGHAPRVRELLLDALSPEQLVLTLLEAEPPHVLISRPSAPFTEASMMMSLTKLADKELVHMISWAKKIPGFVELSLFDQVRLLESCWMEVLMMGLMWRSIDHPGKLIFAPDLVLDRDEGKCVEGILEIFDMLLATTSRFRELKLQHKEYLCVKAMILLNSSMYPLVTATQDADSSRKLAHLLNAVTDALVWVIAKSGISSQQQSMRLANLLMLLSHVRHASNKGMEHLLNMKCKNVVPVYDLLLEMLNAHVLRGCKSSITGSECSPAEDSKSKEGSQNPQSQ

On to `C[C@]12CC[C@@H]3c4ccc(O)cc4CC[C@H]3[C@@H]1CC[C@@H]2O` [Estradiol, estradiol], for which, in series [1] (male), the “Brain Level” value is on record as 0.36 ± 0.04 ng/g and the “PLASMA LEVEL” value amounted to 0.39 ± 0.07 ng/mL. The “levels produced in plasma and brain tissue by the implants” value in series [1] is reported as “high physiological levels”.

Turning to `C[C@]12CC[C@H](O)C[C@@H]1CC[C@@H]1[C@@H]2CC[C@]2(C)[C@@H](O)CC[C@@H]12` [3βAdiol, 5α-androstane-3β,17β-diol], the “binding to estrogen receptor beta (ERβ)” value in series [2] was “strongly binds”.

Take `C[C@@H]1CC2=CC(=O)CC[C@@H]2[C@H]2CC[C@]3(C)[C@@H](O)CC[C@H]3[C@@H]21` [MENT]: the “mean MENT plasma level” value in series [3] came out at 2.12 ng/mL. For the same compound, in series [4], the “remyelination of corpus callosum (myelin basic protein staining, oligodendrocytes)” value (“remyelination of corpus callosum” below) is “promotion of remyelination” and the “promyelinating effect in vivo after demyelination induced by cuprizone intoxication (summary statement)” value (“promyelinating effect in vivo” below) was “also observed”. In the series on mouse spinal cord, the “remyelination after lysolecithin-induced demyelination” value was “can be mimicked by MENT”.

Consider `C[C@]12CC[C@H]3[C@@H](CCC4=CC(=O)CC[C@@]43C)[C@@H]1CC[C@@H]2O` [Testosterone, testosterone], for which, in series [4], the “remyelination of corpus callosum” value is “Strong remyelination”; the “promyelinating effect in vivo” value is “very strong promyelinating effect”; the “remyelinating effect in testicular feminized mice” value is given as “not observed”. Also, the “remyelinating effect in aromatase knockout mice” value in series [4] (aromatase knockout mice, cuprizone model) is “loses its efficiency; also recorded: strongly reduced; also recorded: diminished”. Moreover, in series [4] (listed as testosterone), the “remyelinating effect in testicular feminized mice” value was “eliminated”. Moreover, the “replenishment of corpus callosum fibers by oligodendrocytes” value in series [4] (silastic implants for 3 to 6 weeks after termination of 12 week cuprizone diet) is on record as “replenished by oligodendrocytes forming new myelin sheaths”. Also, the “proliferation and maturation of oligodendrocyte progenitors” value in series [5] is “promotes the proliferation and maturation”. In addition, the “number of activated microglial cells” value in series [6] is reported as “return to normal levels; also recorded: significantly decreased”. The “promyelinating effect in vitro” value in series [7] is “very strong promyelinating effect”.

Regarding `C[C@]12CCC(=O)C[C@@H]1CC[C@@H]1[C@@H]2CC[C@]2(C)[C@@H](O)CC[C@@H]12` [5α-dihydrotestosterone], in series [4], the “remyelination of corpus callosum” value is recorded as “promotion of remyelination” and the “promyelinating effect in vivo” value is “mimicked by 5α-dihydrotestosterone”.
